From paper PMC3844542 (Anesthesia and analgesia, 2013)
pIC50: −log10 of the molar value.

Tests used:
[1] = molecular target: leukocyte function–associated antigen-1 (LFA-1) (Homo sapiens, UniProt P20701); assay: ELISA-type ICAM-1–LFA-1 binding assay with purified LFA-1; format: biochemical
[2] = molecular target: T1, LFA-1 αL I domain (wild-type, low-affinity conformer) (Homo sapiens, UniProt P20701); assay: 1-aminoanthracene fluorescence displacement assay; format: binding
T1 sequence (P20701 153-332): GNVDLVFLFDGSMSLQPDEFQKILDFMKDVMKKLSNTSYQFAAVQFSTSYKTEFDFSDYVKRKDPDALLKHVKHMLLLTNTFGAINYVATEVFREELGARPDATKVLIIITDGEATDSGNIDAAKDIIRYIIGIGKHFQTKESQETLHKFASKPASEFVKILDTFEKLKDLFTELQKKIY

Chain of leukocyte function–associated antigen-1 (LFA-1) (P20701 26-1090 limits assumed): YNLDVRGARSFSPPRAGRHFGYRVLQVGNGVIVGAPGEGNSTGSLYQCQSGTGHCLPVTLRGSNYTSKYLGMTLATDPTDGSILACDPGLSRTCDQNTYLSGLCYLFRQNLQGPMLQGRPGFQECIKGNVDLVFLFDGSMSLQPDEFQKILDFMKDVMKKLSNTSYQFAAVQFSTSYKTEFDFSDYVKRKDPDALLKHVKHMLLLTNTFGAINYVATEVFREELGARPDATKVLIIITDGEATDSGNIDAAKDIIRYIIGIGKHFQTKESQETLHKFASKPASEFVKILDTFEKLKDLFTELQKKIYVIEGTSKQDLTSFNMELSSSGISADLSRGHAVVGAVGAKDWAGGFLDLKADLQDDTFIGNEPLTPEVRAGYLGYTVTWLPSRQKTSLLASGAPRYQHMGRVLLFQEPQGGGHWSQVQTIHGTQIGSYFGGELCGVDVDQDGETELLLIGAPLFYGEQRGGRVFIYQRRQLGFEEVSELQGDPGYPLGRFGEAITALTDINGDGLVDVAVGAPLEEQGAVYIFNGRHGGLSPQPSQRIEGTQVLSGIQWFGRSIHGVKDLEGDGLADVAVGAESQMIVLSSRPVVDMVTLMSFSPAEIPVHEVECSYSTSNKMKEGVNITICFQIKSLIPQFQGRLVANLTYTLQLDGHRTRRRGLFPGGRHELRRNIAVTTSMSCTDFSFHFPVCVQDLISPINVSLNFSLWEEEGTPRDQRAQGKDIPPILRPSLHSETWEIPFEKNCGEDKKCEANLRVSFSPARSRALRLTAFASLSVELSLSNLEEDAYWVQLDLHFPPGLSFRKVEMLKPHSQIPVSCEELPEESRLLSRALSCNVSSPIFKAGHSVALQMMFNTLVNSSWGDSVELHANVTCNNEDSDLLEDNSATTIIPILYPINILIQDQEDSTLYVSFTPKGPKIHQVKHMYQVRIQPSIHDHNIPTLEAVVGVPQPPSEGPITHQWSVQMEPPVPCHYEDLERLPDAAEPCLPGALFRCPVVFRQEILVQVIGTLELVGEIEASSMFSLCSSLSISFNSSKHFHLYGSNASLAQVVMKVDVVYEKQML
Chain of leukocyte function–associated antigen-1 (LFA-1) (P05107 23-769 partner): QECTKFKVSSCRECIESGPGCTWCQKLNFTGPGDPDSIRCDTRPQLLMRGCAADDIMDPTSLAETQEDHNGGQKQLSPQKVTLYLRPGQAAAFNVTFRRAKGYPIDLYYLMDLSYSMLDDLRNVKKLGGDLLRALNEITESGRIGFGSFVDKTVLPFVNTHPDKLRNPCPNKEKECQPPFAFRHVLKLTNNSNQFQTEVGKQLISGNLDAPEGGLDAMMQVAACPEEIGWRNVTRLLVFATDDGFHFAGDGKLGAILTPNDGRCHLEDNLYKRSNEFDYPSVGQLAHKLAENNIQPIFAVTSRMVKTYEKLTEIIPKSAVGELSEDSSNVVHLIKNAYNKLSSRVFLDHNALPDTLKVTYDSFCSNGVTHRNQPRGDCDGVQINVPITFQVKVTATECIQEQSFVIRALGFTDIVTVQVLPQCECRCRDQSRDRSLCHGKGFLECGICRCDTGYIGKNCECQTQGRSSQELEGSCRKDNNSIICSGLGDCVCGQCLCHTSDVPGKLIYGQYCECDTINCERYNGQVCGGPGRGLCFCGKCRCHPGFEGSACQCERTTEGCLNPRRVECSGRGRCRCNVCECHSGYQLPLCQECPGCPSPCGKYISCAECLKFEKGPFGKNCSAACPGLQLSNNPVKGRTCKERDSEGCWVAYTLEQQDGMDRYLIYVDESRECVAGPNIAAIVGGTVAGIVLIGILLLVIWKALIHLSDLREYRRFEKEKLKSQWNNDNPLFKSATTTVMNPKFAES

Row | SMILES | ELISA-type ICAM-1-LFA-1 binding assay with purified LFA-1 [1] | pIC50 [2]
1 | CC(C)(C)c1cccc(C(C)(C)C)c1O [DTBP, 2,6-di-tert-butylphenol] | Both propofol and DTBP inhibited ICAM-1–LFA-1 binding. | –
2 | CC(C)c1cccc(C(C)C)c1O [propofol] | – | 4.04
